Like-named read-outs stand apart in the source and are kept apart here.
Key:
[1] = test system: GABAB-GIRK currents in LHb neurons; assay type: cell-based, mice; conditions: LB100 0.1 μM in the bath; for I-baclofen current: mean±s.e.m.
GIRK channels = assay: GTPγS-induced Ba2+-sensitive outward current (I-GTPγS) in LHb neurons of brain slices; assay type: cell-based, mice; conditions: LB100 in the bath; for Ba2+ sensitive I-GTPγS current: GTPγS 100 μM internal
Experimental: Animals were anesthetized with Ketamine/Xylazine (50 mg/10 mg Kg-1 i.p.; Sigma-Aldrich, France). The preparation of LHb-containing brain slices was done in bubbled ice-cold 95% O2/5% CO2-equilibrated solution containing (in mM): cholineCl 110; glucose 25; NaHCO3 25; MgCl2 7; ascorbic acid 11.6; Na+-pyruvate 3.1; KCl 2.5; NaH2PO4 1.25; CaCl2 0.5. Sagittal slices (250 μm) were stored at room temperature in 95% O2/5% CO2-equilibrated artificial cerebrospinal fluid (ACSF) containing (in mM): NaCl 124; NaHCO3 26.2; glucose 11; KCl 2.5; CaCl2 2.5; MgCl2 1.3; NaH2PO4 1. Recordings (flow rate of 2.5 ml/min) were made under an Olympus-BX51 microscope (Olympus, France) at 32° C. Currents were amplified, filtered at 5 kHz and digitized at 20 kHz. Access resistance was monitored by a step of −4 mV (0.1 Hz). Experiments were discarded if the access resistance increased more than 20%.
(§1) Cell-attached recordings in ACSF were performed in GΩ seal with a Vc=0 and Hc=0. Whole-cell voltage clamp recordings were achieved to measure GABAB-GIR currents in presence of Bicuculine (10 μM), NBQX (20 μM) and AP5 (50 μM). […] GABAB-GIRK currents were confirmed by antagonism with either 10 μM of CGP54626, a specific GABAB antagonist or 1 mM Ba^2, a selective inhibitor of inward rectifiers. For the GTPγS experiment, 100 μM of GTPγS was added to the internal solution in place of Na3GTP.

[2] = test system: GABAB-GIRK currents in LHb neurons; assay: In vivo LB100 treatment after foot-shock exposure (FsE), I-baclofen recorded in LHb slices; parameters: species or system mice; conditions: for FsE-induced decrease in I-baclofen (CTRL vs FsE): 7 days after FsE; for FsE-induced I-baclofen attenuation (CTRL vs FsE): one day after FsE
Experimental: (§2) The inescapable shock procedure was previously described in Stamatakis and Stuber 2012. Briefly, we placed mice into standard mouse behavioral chambers (Imetronics) equipped with a metal grid floor. We let them to habituate at the new environment for 5 m. In a 20 m session animals received either 19 or 0 unpredictable foot shocks (1 mA, 500 ms) with an interstimulus interval of 30, 60 or 90 s. We anesthetized mice for patch-clamp electrophysiology 1 h, 24 h, 7 d, 14 d or 30 d after the session ended.
as §1
(§3) For LB treatment experiments, mice were injected with LB (1.5 mg/Kg i.p.) or saline 6-8 hours after the FsE. The effects of the treatment on the LHb excitability and GABAB-GIRKs currents as well as the behavioural assay were assessed at day 1 or 7. For both electrophysiology and behaviour once treated the animal were housed in groups of 4-6 and let undisturbed until the day of the test.

LHb neurons = assay: In vivo LB100 treatment after FsE, LHb neuronal excitability (input-output curve) in slices; parameters: species or system mice; conditions: LB100 1.5 mg/kg ip 6-8 h after FsE
Experimental: as §2
For the Okadaic acid (OA) and the CaMKII inhibitor KN93 experiments, respectively 100 nM of OA or 10 μM of KN93 were added in the internal solution. For the PP2A inhibitor LB100 experiments, LB100 (0.1 μM) was applied in the bath. Miniature excitatory postsynaptic currents (mEPSCs) were recorded in voltage-clamp mode at −60 mV in presence of bicuculine (10 μM) and TTX (1 μM). Miniature inhibitory postsynaptic currents (mIPSCs) were recorded (−60 mV) in presence of NBQX (20 μM) and TTX (1 μM). EPSCs and IPSCs were evoked through an ACSF filled monopolar glass electrode placed 200 μm from the recording site in the stria medullaris. AMPA:NMDA ratios of evoked-EPSC were obtained by AMPA-EPSC −60 mV/NMDA-EPSCs at +40 mV. Rectification Index (RI) was computed by […]-60/AMPA-EPSC+40. For the experiments in which high-frequency stimulation trains were used to determine presynaptic release probability, QX314 (5 mM) was included in the internal solution to prevent the generation of sodium spikes. Current-clamp experiments, were performed by a series of current steps (negative to positive) injected to induce action potentials (5-10 pA injection current per step, 800 ms).
as §3

C57Bl/6J mice = assay: Re-exposure to the context test (freezing) after FsE; assay type: in vivo; conditions: LB100 ip 6-8 h after FsE; one day after FsE
Experimental: as §2, §3
For this experiment mice were re-exposed 24 h after to the chamber where they received (or not) shocks for a total duration of 5 m. […] The behavior was scored according to a 5-sec instantaneous time-sampling procedure every 25 sec (Fanselow and Bolles 1979). The observer scored the animal as freezing, scanning or active at that instant and then proceeded to the next chamber. […] Thus each animal was scored […], yielding 10 observations for each mouse for total 5 minutes session. […]

PP2A = PP2A (Homo sapiens, UniProt P67775); conditions: cited from earlier work
cancer cells = conditions: cited from earlier work; for Anti-cancer activity when used alone: mouse model systems (Lu et al. 2009a)
[3] = LB100 1.5 mg/kg ip 6-8 h after FsE, 1.5 mg/kg
[4] = LB100 1.5 mg/kg ip 6-8 h after FsE, listed as LB-100, 1.5 mg/kg

PP2A, sequence (P67775 whole entry): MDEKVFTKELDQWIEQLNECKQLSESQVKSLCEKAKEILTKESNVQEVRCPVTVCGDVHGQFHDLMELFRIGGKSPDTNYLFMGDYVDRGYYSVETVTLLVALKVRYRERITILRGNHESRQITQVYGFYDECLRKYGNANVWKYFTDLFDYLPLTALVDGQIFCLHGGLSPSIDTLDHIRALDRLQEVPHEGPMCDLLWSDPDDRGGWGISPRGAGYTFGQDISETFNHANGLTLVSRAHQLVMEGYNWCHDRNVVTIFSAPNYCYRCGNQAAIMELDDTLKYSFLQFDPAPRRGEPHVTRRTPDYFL
PP2A, sequence (P30153 whole entry partner): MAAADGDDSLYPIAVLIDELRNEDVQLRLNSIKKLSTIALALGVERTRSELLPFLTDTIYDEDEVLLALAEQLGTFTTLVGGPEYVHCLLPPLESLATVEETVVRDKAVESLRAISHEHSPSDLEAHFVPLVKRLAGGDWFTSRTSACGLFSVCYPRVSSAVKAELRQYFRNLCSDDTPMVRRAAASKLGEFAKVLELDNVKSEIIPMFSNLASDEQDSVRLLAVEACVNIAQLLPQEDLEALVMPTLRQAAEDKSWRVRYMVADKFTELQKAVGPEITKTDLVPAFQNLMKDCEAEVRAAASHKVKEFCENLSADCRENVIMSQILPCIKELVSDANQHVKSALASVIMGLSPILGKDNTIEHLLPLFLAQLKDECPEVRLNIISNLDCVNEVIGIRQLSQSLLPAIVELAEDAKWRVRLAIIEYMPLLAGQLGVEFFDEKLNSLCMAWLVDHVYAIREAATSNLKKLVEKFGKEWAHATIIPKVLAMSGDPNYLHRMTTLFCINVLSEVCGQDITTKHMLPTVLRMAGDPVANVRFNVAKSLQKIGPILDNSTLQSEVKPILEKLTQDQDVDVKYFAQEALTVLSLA

## CN1CCN(C(=O)C2C(C(=O)O)[C@H]3CC[C@@H]2O3)CC1 (stereo partly shown) [LB100]
[1]
  FsE-induced inhibition of GABAB-GIRK currents (I-baclofen CTRL vs FsE): sufficient to rescue
[1]; slices from CTRL mice
  I-baclofen current: 88.41±18.64 pA
[1]; slices from FsE mice
  I-baclofen current: 85.09±0.67 pA
[1]; listed as LB-100
  FsE-induced inhibition of GABAB-GIRK currents (I-baclofen CTRL vs FsE): comparable
GIRK channels
  Ba2+ sensitive I-GTPγS in FsE animals vs CTRL: restored
GIRK channels; CTRL mice
  Ba2+ sensitive I-GTPγS current: 94.27±13.29 pA
GIRK channels; FsE mice
  Ba2+ sensitive I-GTPγS current: 110.6±20.79 pA
GIRK channels; listed as LB-100
  Ba2+ sensitive I-GTPγS in FsE animals vs CTRL: comparable to the control group
[2]; LB100 1.5 mg/kg ip 6-8 h after FsE protocol, recorded one day after, CTRL mice
  I-baclofen current: 93.88±18.37 pA
[2]; [3]
  FsE-induced decrease in I-baclofen (CTRL vs FsE): able to revert
  FsE-induced I-baclofen attenuation (CTRL vs FsE): not present
[2]; [4]
  FsE-induced decrease in I-baclofen (CTRL vs FsE): comparable
  FsE-induced I-baclofen attenuation (CTRL vs FsE): comparable
[2]; LB100 1.5 mg/kg ip 6-8 h after FsE, recorded one day after, FsE mice
  I-baclofen current: 97.00±18.05 pA
[2]; single injection of LB100 6-8 hours after the shock protocol, recorded 7 days later, CTRL mice
  I-baclofen current: 95.54±30.00 pA
[2]; single injection of LB100 6-8 hours after the shock, recorded 7 days later, FsE mice
  I-baclofen current: 92.97±14.84 pA
LHb neurons; 7 days after, 1.5 mg/kg
  LHb neuronal excitability, input-output curve CTRL vs FsE: able to abolish the increase in excitability
LHb neurons; 7 days after, listed as LB-100, 1.5 mg/kg
  LHb neuronal excitability, input-output curve CTRL vs FsE: normalized
LHb neurons; one day after, 1.5 mg/kg
  LHb neuronal excitability, input-output curve CTRL vs FsE: did not show any difference
LHb neurons; one day after, listed as LB-100, 1.5 mg/kg
  LHb neuronal excitability, input-output curve CTRL vs FsE: normalized
C57Bl/6J mice
  Freezing score in the re-exposure to the context test: did not affect
PP2A; 1.5 mg/Kg (Lu et al., 2009b)
  Duration of inhibition of PP2A activity: about 12 hours
  Time of peak of PP2A-inhibiting activity: ~8 h
PP2A; in vitro in human cancer cells and in xenografts of human tumor cells in mice when given parenterally
  PP2A inhibition: inhibitor of PP2A
Cancer cells; in vivo
  Toxicity in combination with standard cytotoxic anti-cancer drugs: without observable increase in toxicity
Cancer cells
  Anti-cancer activity when used alone: has anti-cancer activity
Cancer cells; listed as LB-100
  Anti-cancer activity when used alone: inhibits the growth of cancer cells
Cancer cells; with temozolomide, doxorubicin, docetaxel
  Potentiation in vivo of anti-tumor activity of standard cytotoxic anti-cancer drugs: significantly potentiates

Reference: patent publication US10413541B2, “Oxabicycloheptanes and oxabicycloheptenes for the treatment of depressive and stress disorders” (LIXTE BIOTECHNOLOGY, INC., priority 2015, dated 2019)
